From ChEMBL document CHEMBL1201862, “PubChem BioAssay data set” (2004)
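In this assay, cells in 96-well plates receive the compound at five concentrations for 48 hours. Endpoints are linearly interpolated between the surrounding concentrations. GI50: concentration for 50% inhibition of growth.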 Active and inactive are the calls of the source. Cut-off read from the data, not from the text of the source: active = GI50 up to about 1.1 µM and inactive = higher.

Experiments:
Test in all cases: NCI tumour cell line growth inhibition, 48 h
DLD-1 = system: DLD-1
DMS-114 = system: DMS-114
DMS-273 = system: DMS-273
HOP-18 = system: HOP-18
KM-20L2 = system: KM-20L2
M19-MEL = system: M19-MEL
RXF 631 = system: RXF 631
SNB-78 = system: SNB-78
XF498 = system: XF498

Row | Compound | GI50 (DLD-1) | GI50 (DMS-114) | GI50 (DMS-273) | GI50 (HOP-18) | GI50 (KM-20L2) | GI50 (M19-MEL) | GI50 (RXF 631) | GI50 (SNB-78) | GI50 (XF498)
1 | CCSC1=CC(Cc2ccc(OC)cc2)N(C(=O)OC)C1 (stereo not drawn) | 81.8 µM (inactive) | 23.4 µM (inactive) | 70 µM (inactive) | > 100 µM (inactive) | > 100 µM (inactive) | > 100 µM (inactive) | > 100 µM (inactive) | > 100 µM (inactive) | > 100 µM (inactive)
2 | C/C(=N/NC(=O)C(N)=O)C(CC(C(=O)Nc1ccccc1C)/C(C)=N\NC(=O)C(N)=O)C(=O)Nc1ccccc1C (stereo not drawn) | > 100 µM (inactive) |  |  |  | > 100 µM (inactive) | > 100 µM (inactive) |  | > 100 µM (inactive) | 
3 | CC(C)S(=O)(=O)ON1C(=O)c2ccc([N+](=O)[O-])cc2C1=O | > 100 µM (inactive) | > 100 µM (inactive) | > 100 µM (inactive) | > 100 µM (inactive) |  | > 100 µM (inactive) | > 100 µM (inactive) | > 100 µM (inactive) | > 100 µM (inactive)
4 | COc1ccc2c(c1)CC[C@@H]1C2CC[C@]2(C)C(=O)NC(=O)CC12 (stereo partly drawn) | > 100 µM (inactive) |  | 65.8 µM (inactive) | 26 µM (inactive) | > 100 µM (inactive) | > 100 µM (inactive) |  | > 100 µM (inactive) | > 100 µM (inactive)
5 | CCCCOC(=O)N[C@H]1CCc2cc(OC)c(OC)c(OC)c2-c2ccc(SC)c(=O)cc21 | < 0.01 µM (active) | < 0.01 µM (active) | < 0.01 µM (active) | 21.4 µM (inactive) | < 0.01 µM (active) | < 0.01 µM (active) |  | < 0.01 µM (active) | < 0.01 µM (active)
6 | CCCC/C=C1\CCC(C)(CN(C)C)C1=O (stereo not drawn) | > 10 µM (inactive) | > 100 µM (inactive) |  | > 100 µM (inactive) | > 100 µM (inactive) | 15.6 µM (inactive) |  | > 100 µM (inactive) | 
7 | CCOc1ccc(NC(=O)CCc2nnc(SC)o2)cc1 | > 100 µM (inactive) | > 100 µM (inactive) | > 100 µM (inactive) | > 100 µM (inactive) | > 100 µM (inactive) | > 100 µM (inactive) |  | > 100 µM (inactive) | 
8 | COc1ccccc1NC(=O)C1=C(C)NC(C)=C(C(=O)Nc2ccccc2OC)C1c1ccco1 | 4.27 µM (inactive) | 2.87 µM (inactive) | 4.14 µM (inactive) | 3.31 µM (inactive) | 3.76 µM (inactive) | 4.63 µM (inactive) | 6.18 µM (inactive) | 9.1 µM (inactive) | 6.01 µM (inactive)
9 | C=C(C)[C@H]1Cc2c(ccc3c2O[C@@H]2COc4cc(OC)c(OC)cc4[C@@H]2C3=O)O1 [ROTENONE] | 0.241 µM (active) | < 0.01 µM (active) | 0.0378 µM (active) |  | 0.128 µM (active) | 0.0559 µM (active) |  | 0.456 µM (active) | 0.055 µM (active)
10 | COC(=O)N/N=C(\C)c1c(O)cc(C)oc1=O | 30.1 µM (inactive) |  |  |  | 22.1 µM (inactive) |  | > 100 µM (inactive) | > 100 µM (inactive) | 
11 | CCOc1ccc(/N=C/c2c3ccccc3nc3ccccc23)cc1 | 24.7 µM (inactive) | 25.1 µM (inactive) | 32.4 µM (inactive) | > 100 µM (inactive) | 40.2 µM (inactive) | > 100 µM (inactive) | > 100 µM (inactive) | > 100 µM (inactive) | 65.6 µM (inactive)
12 | O=C(Nc1c(O)[nH]c(=S)[nH]c1=O)c1ccccc1F | > 100 µM (inactive) | > 100 µM (inactive) |  | > 100 µM (inactive) | > 100 µM (inactive) | > 100 µM (inactive) | > 100 µM (inactive) | > 100 µM (inactive) | 
13 | COC(=O)[C@@]12OC[C@]34C([C@@H](O)C1O)[C@@]1(C)CC(=O)C(OC(=O)/C=C(/c5ccccc5)C(F)(F)F)=C(C)C1C[C@H]3OC(=O)[C@H](O)[C@H]42 (stereo partly drawn) | 7.41 µM (inactive) | 4.27 µM (inactive) | 3.44 µM (inactive) | 30.1 µM (inactive) | 8.61 µM (inactive) | 5.08 µM (inactive) |  | 11.2 µM (inactive) | 9.82 µM (inactive)
14 | CCCCCCCSCC1C(=O)C23C(O)C1CCC2C12COC3(O)C(O)C1C(C)(C)CCC2O (stereo not drawn) | 14.4 µM (inactive) | 8.38 µM (inactive) | 12.6 µM (inactive) | 12.5 µM (inactive) | 12 µM (inactive) | 15.3 µM (inactive) | 5.04 µM (inactive) | 15.3 µM (inactive) | 18.5 µM (inactive)
15 | COc1cc2c(cc1OC)C(OC)N(C)c1c-2ccc2cc3c(cc12)OCO3 (stereo not drawn) | 9.68 µM (inactive) | 1.17 µM (inactive) | 1.11 µM (active) | 21.6 µM (inactive) | 0.558 µM (active) | 1.19 µM (inactive) |  | 2.67 µM (inactive) | 0.895 µM (active)
16 | S=c1sc2c(S)nc(S)nc2n1-c1ccccc1 | > 100 µM (inactive) | 75.5 µM (inactive) | > 100 µM (inactive) | > 100 µM (inactive) | > 100 µM (inactive) | > 100 µM (inactive) |  | > 100 µM (inactive) | > 100 µM (inactive)
17 | Cc1nc(C)c(C(=O)Nc2cccc3c2C(=O)NC3=O)cc1C(=O)Nc1cccc2c1C(=O)NC2=O | > 100 µM (inactive) | > 100 µM (inactive) | > 100 µM (inactive) | > 100 µM (inactive) | > 100 µM (inactive) | > 100 µM (inactive) |  | > 100 µM (inactive) | > 100 µM (inactive)
18 | C=CCCCCCCCCCCCC1CCC(CC)N1 (stereo not drawn) | 3.72 µM (inactive) | 5 µM (inactive) | 2.33 µM (inactive) | 12.6 µM (inactive) | 4.04 µM (inactive) | 5.15 µM (inactive) | 6.19 µM (inactive) | 14.9 µM (inactive) | 
19 | O=C1C2C3C=C4c5ccccc5N(c5ccccc5)C4(C2C(=O)N1c1ccc(Br)cc1)[C@H]1C(=O)N(c2ccc(Br)cc2)C(=O)[C@@H]31 (stereo partly drawn) | > 100 µM (inactive) |  | > 100 µM (inactive) | > 100 µM (inactive) | > 100 µM (inactive) |  |  | > 100 µM (inactive) | > 100 µM (inactive)
20 | COc1ccc(/N=C/c2ccc(N(CCC#N)S(=O)(=O)c3ccccc3)cc2)cc1 | > 100 µM (inactive) | > 100 µM (inactive) | > 100 µM (inactive) | > 100 µM (inactive) | > 100 µM (inactive) | > 100 µM (inactive) | > 100 µM (inactive) | > 100 µM (inactive) | > 100 µM (inactive)
21 | CCCCCCCCCCCCCCCCOC(=O)c1cc(O)cc(C(=O)OCCCCCCCCCCCCCCCC)c1 |  | > 100 µM (inactive) | > 100 µM (inactive) | > 100 µM (inactive) | > 100 µM (inactive) | > 100 µM (inactive) | > 100 µM (inactive) | > 100 µM (inactive) | 
22 | Cc1c(/N=C\c2ccc(N(CCC#N)CCC#N)cc2)c(=O)n(-c2ccccc2)n1C | > 100 µM (inactive) | > 100 µM (inactive) | > 88.5 µM (inactive) | 25.2 µM (inactive) | > 100 µM (inactive) | > 100 µM (inactive) |  | 51.6 µM (inactive) | 28 µM (inactive)
23 | COC(=O)C12C34C=CC5(CCC6(C=CC1(CC3)O6)C52C(=O)OC)O4 (stereo not drawn) |  |  | > 100 µM (inactive) | > 100 µM (inactive) | > 100 µM (inactive) | > 100 µM (inactive) | > 100 µM (inactive) | > 100 µM (inactive) | 46.8 µM (inactive)
24 | Cc1cc(/C=C/c2cc[n+](C)c3ccccc23)c(O)c2ncccc12 | 3.32 µM (inactive) | 0.214 µM (active) | 0.558 µM (active) | 1.36 µM (inactive) | 5.68 µM (inactive) | 1.42 µM (inactive) |  | 4.63 µM (inactive) | 
